Tests used:
MCF-7 cells = experiment: Cell Viability Assay (ATPlite 1step), MCF-7; assay type: cell-based; settings: Homo sapiens, MCF7, 72 hours; for percent inhibition of cell viability at 4 µM: MCF-7, 4 uM compound, read-out: Cell Viability % inhibition MCF-7 (4 uM Cpd); for percent inhibition of cell viability at 20 µM: MCF-7, 20 uM compound, read-out: Cell Viability % inhibition MCF-7 (20 uM Cpd)
Method: (§1) Cell Viability Assay Protocol
(§2) Cells were trypsinized, counted, and re-seeded into a 384-well tissue culture plate at 1000 cells per well in […] media. Cells were incubated at 37° C. in an atmosphere of 5% CO2 for 24 hours. Experimental compounds, initially dissolved in DMSO and diluted further in media were added to the wells and incubated for 72 hours. Cell viability was measured using the ATPlite 1step Luminescence Detection Assay system (Perkin Elmer) as described in the Assay kit instructions.
(§3) Cell Culture Lines and Media: (1) A2780 cells were cultured in RPMI media with 10% FBS and 1% antibiotics. Cells were typically split every 3-5 days at a 1:10 dilution; (2) PC3 cells were cultured in RPMI media with 10% FBS and 1% antibiotics. Cells were typically split every 3-5 days at a 1:4 dilution; (3) MCF-7 cells were grown in K-12F media with 10% FBS and 1% antibiotics. Cells were typically split every 3-5 days at a 1:10 dilution.

A2780 cells = experiment: Cell Viability Assay (ATPlite 1step), A2780; assay type: cell-based; settings: Homo sapiens, 72 hours; for percent inhibition of cell viability at 4 µM: A2780, 4 uM compound, read-out: Cell Viability % inhibition A2780 (4 uM Cpd); for percent inhibition of cell viability at 20 µM: A2780, 20 uM compound, read-out: Cell Viability % inhibition A2780 (20 uM Cpd)
Method: as §1, §2, §3

PC3 cells = experiment: Cell Viability Assay (ATPlite 1step), PC3; assay type: cell-based; settings: Homo sapiens, PC-3, 72 hours; for percent inhibition of cell viability at 4 µM: PC3, 4 uM compound, read-out: Cell Viability % inhibition PC3 (4 uM Cpd); for percent inhibition of cell viability at 20 µM: PC3, 20 uM compound, read-out: Cell Viability % inhibition PC3 (20 uM Cpd)
Method: as §1, §2, §3

porcine neuronal tubulin = experiment: Tubulin Polymerization Assay; assay type: biochemical; settings: porcine tubulin 2.0 mg/ml, 37° C., fluorescence; read-out: IC50 (tubulin polymerization, from Vmax)
From the text: Tubulin Polymerization Assay
The Tubulin Polymerization Assay uses porcine neuronal tubulin and measurements are based on fluorescence enhancement due to the incorporation of a fluorescent reporter into microtubules as polymerization occurs. The assay generates a polymerization curve representing the three phases of microtubule formation (nucleation, growth and equilibrium). IC50 values for tested compounds can be generated from the observed polymerization curves.
Procedure: All compounds dilutions (in DMSO) were prepared prior to the following steps. A Molecular Devices M2 plate reader was set to 37° C. Once the internal temperature of the plate reader reached 37° C. a 96 well plate (Corning Costar, at. #3686) was placed in the fluorimeter and allowed to warm to 37° C. for 30 minutes. A total of 10 mg of porcine tubulin was resuspended in […] of Polymerization Buffer [Buffer 1 (80 mM PIPES pH 6.9, 2.0 mM MgCl2, 0.5 mM EGTA, 1.0 mM GTP and 10 μM fluorescent reporter) supplemented with 20% glycerol] to generate a 2.0 mg/ml tubulin stock and this was kept on ice. The 50× compound stocks in 100% DMSO were spotted 1 μl/well in duplicate into the wells of the 96-well plate at 37° C. and allowed to re-warm for 5 minutes at 37° C. During this incubation the 2.0 mg/ml tubulin stock was placed in a disposable plastic trough and allowed to warm briefly at room temperature. To initiate the reaction, 50 μl/well of 2.0 mg/ml tubulin in Polymerization Buffer was added to each well using a multi-channel pipettor and the fluorescence measurements were started immediately.
The maximal velocity (Vmax) of tubulin polymerization was determined using linear regression of the averaged fluorescence data at each time point using GraphPad Prism 5.0 software. The Vmax determinations for each compound at each concentration were then normalized to reactions that contained DMSO (2% final concentration) but no test compounds. This converted the data to % Activity, which refers to the percent of the Vmax of an uninhibited reaction. The concentration response curves were then plotted as the % Activity versus the Log 10 of the compound concentration in micromolar and fit by non-linear regression to a 4-parameter sigmoidal dose-response equation using GraphPad Prism 5.0 software to determine the IC50 for each compound.

Row | Compound | percent inhibition of cell viability at 4 µM (MCF-7 cells) [%] | percent inhibition of cell viability at 20 µM (MCF-7 cells) [%] | percent inhibition of cell viability at 4 µM (A2780 cells) [%] | percent inhibition of cell viability at 20 µM (A2780 cells) [%] | percent inhibition of cell viability at 4 µM (PC3 cells) [%] | percent inhibition of cell viability at 20 µM (PC3 cells) [%] | IC50 (porcine neuronal tubulin) [µM]
1 | Cc1ncc(C(=O)Nc2ncc(-c3ccsc3)cc2F)cn1 [Compound 69, N-[3-fluoro-5-(thiophen-3-yl)pyridin-2-yl]-2-methylpyrimidine-5-carboxamide] | 56.2 | 61.3 | 84.7 | 90.1 | 57.6 | 64.5 | 2.35
2 | Cc1ccc(C(=O)Nc2ccc(-c3cccc(C4COC4)c3)cn2)cn1 [Compound 44, 6-methyl-N-{5-[3-(oxetan-3-yl)phenyl]pyridin-2-yl}pyridine-3-carboxamide] |  |  | 86.5 | 86.1 | 81.8 | 84.6 | 0.3
3 | Cc1ncc(C(=O)Nc2ccc(-c3ccsc3)cn2)cn1 [Compound 61, 2-methyl-N-[5-(thiophen-3-yl)pyridin-2-yl]pyrimidine-5-carboxamide] | 73.3 | 72.9 | 86.5 | 89.7 | 58.3 | 70.6 | 0.26
4 | Cc1ncc(C(=O)Nc2ccc(-c3cccc(NC4CC4)c3)cn2)cn1 [Compound 31, N-{5-[3-(cyclopropylamino)phenyl]pyridin-2-yl}-2-methylpyrimidine-5-carboxamide] |  |  | 70.9 | 71.2 | 51.8 | 43.7 | 0.32
5 | O=C(Nc1ccc(-c2cccc(C3CC3)c2)cn1)c1cncnc1 [Compound 16, N-[5-(3-cyclopropylphenyl)pyridin-2-yl]pyrimidine-5-carboxamide] | 70.2 | 78.4 | 90.4 | 92.1 | 73.7 | 77.7 | 0.48
6 | CC[C@]1(O)C[C@@H]2CN(CCc3c([nH]c4ccccc34)[C@@](C(=O)OC)(c3cc4c(cc3OC)N(C)[C@H]3[C@@](O)(C(=O)OC)[C@H](OC(C)=O)[C@]5(CC)C=CCN6CC[C@]43[C@@H]65)C2)C1 [Vinblastine, reference compound] |  |  |  |  |  |  | 0.2
7 | Cc1ncc(C(=O)Nc2ccc(-c3cccc(OC4CC4)c3)cn2)cn1 [Compound 27, N-{5-[3-(cyclopropyloxy)phenyl]pyridin-2-yl}-2-methylpyrimidine-5-carboxamide] |  |  | 77.3 | 77.4 | 58.3 | 69.6 | 0.68
8 | CC[C@]1(O)C[C@H]2CN(CCc3c([nH]c4ccccc34)[C@@](C(=O)OC)(c3cc4c(cc3OC)N(C=O)[C@H]3[C@@](O)(C(=O)OC)[C@H](OC(C)=O)[C@]5(CC)C=CCN6CC[C@]43[C@@H]65)C2)C1 [Vincristine, reference compound] |  |  |  |  |  |  | 0.68
9 | Cc1ncc(C(=O)Nc2ccc(-c3cccc(C4CC4)c3)cn2)cn1 [Compound 23, N-[5-(3-cyclopropylphenyl)pyridin-2-yl]-2-methylpyrimidine-5-carboxamide] |  |  | 71.5 | 80.3 | 53.7 | 66.2 | 0.89
10 | Cc1ncc(C(=O)Nc2ccc(-c3cc(N4CCN(C)CC4)cc(S(=O)(=O)C4CC4)c3)cn2)cn1 [Compound 49, N-{5-[3-cyclopropylsulfonyl-5-(4-methylpiperazin-1-yl)phenyl]pyridin-2-yl}-2-methylpyrimidine-5-carboxamide] | 28.1 | 48.3 | 16.9 | 59.5 | 19.4 | 39.7 | 
11 | O=C(Nc1ccc(-c2ccncc2)cn1)c1cncnc1 [Compound 13, N-(3,4′-bipyridin-6-yl)pyrimidine-5-carboxamide] | 4.5 | 0.2 | 9.3 | 47.2 | 19.2 | 17.5 | 
12 | COc1cccc(-c2ccc(NC(=O)c3cncnc3)nc2)c1 [Compound 18, N-[5-(3-methoxyphenyl)pyridin-2-yl]pyrimidine-5-carboxamide] | 58.8 | 75.4 | 88.5 | 91.5 | 66.2 | 76.5 | 
13 | Cc1ncc(C(=O)Nc2ccc(-c3cc(Cl)cc(N4CCN(C)CC4)c3)c(C)n2)cn1 [Compound 48, N-{5-[3-chloro-5-(4-methylpiperazin-1-yl)phenyl]-6-methylpyridin-2-yl}-2-methylpyrimidine-5-carboxamide] | 36.5 | 47.8 | 79.2 | 88.8 | 72 | 67 | 
14 | O=C(Nc1ccc(-c2cccs2)cn1)c1cccnc1 [Compound 11, N-[5-(thiophen-2-yl)pyridin-2-yl]pyridine-3-carboxamide] | 58.6 | 88.9 | 85 | 97.8 | 70 | 83.8 | 
15 | Cc1ncc(C(=O)Nc2ccc(-c3cc(N4CCN(C)CC4)cc(S(=O)(=O)C4CC4)c3)c(C)n2)cn1 [Compound 50, N-{5-[3-cyclopropylsulfonyl-5-(4-methylpiperazin-1-yl)phenyl]-6-methylpyridin-2-yl}-2-methylpyrimidine-5-carboxamide] | 10 | 40.7 | 7.3 | 62.6 | 39.2 | 54.7 | 
16 | Cc1ncc(C(=O)Nc2ccc(-c3cc(NC4CC4)cc(N4CCN(C)CC4)c3)c(C)n2)cn1 [Compound 52, N-{5-[3-cyclopropylamino-5-(4-methylpiperazin-1-yl)phenyl]-6-methylpyridin-2-yl}-2-methylpyrimidine-5-carboxamide] | -1.6 | 22.2 | 8 | 69.5 | 35 | 52.5 | 
17 | O=C(Nc1ncc(-c2ccccc2)cn1)c1cncnc1 [Compound 12, N-(5-phenylpyrimidin-2-yl)pyrimidine-5-carboxamide] | 53.7 | 69.8 | 82.7 | 91.3 | 59.7 | 69.2 | 

— patent publication US12383533B2 (Frost Biologic, Inc., priority 2014, dated 2025)
